Data as given in patent US20100152165A1, “CARBOXYLIC ACID DERIVATIVES” (priority 2006, published 2010).

What was measured:
MIN6 cell = assay: Insulin secretion promoting action using MIN6 cell; format: cell-based, mouse; details: relative activity value at 1 μM of compound, control (DMSO) 100%; KRB-HEPES with 2.8 mM or 22.4 mM glucose, 37° C. 2 hours
Method: Test Method 2: Insulin Secretion Promoting Action using MIN6 Cell
In this test, the insulin secretion promoting action of compounds to be tested was examined using a mouse pancreatic β cell strain, MIN6 cell. The test method is shown below.
The MIN6 cell was inoculated onto a 96 well plate to a density of 5×10^4 cells/well (200 μl). As the medium, DMEM medium (25 mM glucose) containing 10% FBS, 55 μM of 2-mercaptoethanol, 100 U/ml of penicillin and 100 μg/ml of streptomycin was used. Two days thereafter, the medium was removed using an aspirator, and the plate was once washed with 200 μl of KRB-HEPES (116 mM NaCl, 4.7 mM KCl, 1.2 mM KH2PO4, 1.2 mM MgSO4, 0.25 mM CaCl2, 25 mM NaHCO3, 0.005% FFA Free BSA, 24 mM HEPES (pH 7.4)) containing 2.8 mM glucose, which had been warmed up to 37° C., and again filled with 200 μl of the same buffer and incubated at 37° C. for 1 hour. After removing the aforementioned buffer using an aspirator, this was again washed with the buffer (200 μl), and then a predetermined concentration of each compound to be tested was added to KRB-HEPES containing 2.8 mM or 22.4 mM of glucose, added in 100 μl portions to respective wells and incubated at 37° C. for 2 hours. The aforementioned samples were collected and diluted 100 times, and the insulin concentration was determined using an insulin RIA kit (Amersham). […]

human GPR40 = target: T1, human GPR40 (Homo sapiens, UniProt O14842); assay: GPR40 agonist activity measurement (FLIPR, intracellular calcium); format: cell-based; details: human GPR40-expressed CHO cell strain; fluorescence intensity change one minute after measurement
T1 construct: expressed in transfected cells
Excerpt: Test Method 1: GPR40 Agonist Activity Measurement
i) Cloning of Human GPR40
In accordance with the following procedure, complete length sequence of GPR40 was obtained by a PCR method using a human genomic DNA (Clontech) as the template.
An oligonucleotide consisting of the nucleotide sequence represented by SEQ ID NO:1 was used as the forward primer, and an oligonucleotide consisting of the nucleotide sequence represented by SEQ ID NO:2 as the reverse primer. In this connection, a nucleotide sequence containing a XbaI recognition sequence is added to the […] of each of the aforementioned forward primer and reverse primer. In the PCR, a cycle consisting of 94° C. (15 seconds)/55° C. (30 seconds)/72° C. (1 minute) was repeated 30 times using a Taq DNA polymerase (Ex Taq DNA polymerase; Takara Bio) in the presence of 5% dimethyl sulfoxide (DMSO). As a result, a DNA fragment of about 0.9 kbp was amplified. This DNA fragment was digested with XbaI and then inserted into the XbaI site of a plasmid pEF-BOS-dhfr (Nucleic Acids Research, 18, 5322, 1990) to obtain a plasmid pEF-BOS-dhfr-GPR40.
Nucleotide sequence of GPR40 gene in the plasmid pEF-BOS-dhfr-GPR40 was determined by the dideoxy terminator method using a DNA sequencer (ABI 377 DNA Sequencer; Applied Biosystems). Nucleotide sequence of the GPR40 gene was as the nucleotide sequence represented by SEQ ID NO:3.
ii) Preparation of GPR40 Stable Expression Cell
A CHO dhfr cell (a dihydrofolate reductase (dhfr) gene-deficient CHO cell) was used as the cell for expressing GPR40 protein. In addition, the plasmid pEF-BOS-dhfr-GPR40 obtained in the aforementioned i) was used as the expression plasmid for expressing the GPR40 protein. The CHO dhfr cell in 10% fetal calf serum (FCS)-containing aMEM medium was inoculated into a 6 well plate and cultured overnight to a stage of 80 to 90% confluent, and then gene transfer of 2 μg per well of the plasmid pEF-BOS-dhfr-GPR40 was carried out using a transfection reagent (Lipofectamine 2000; Invitrogen). After 24 hours of the culturing since the gene transfer, the cells were diluted and inoculated again. […] After 20 days of culturing, the thus formed colonies of cells were individually recovered and cultured to obtain CHO cells stably expressing GPR40. Cells showing high reactivity for integral ligands oleic acid and linoleic acid were selected from them.
iii) GPR40 Agonist Activity Measurement
This test was measured by FLIPR (registered trade mark, Molecular Device) using change in the intracellular calcium concentration as the index. The test method is shown below.
A human GPR40-expressed CHO cell strain was inoculated in 6×10^3 cells per well portions into a 384 well black plate (Becton-Dickinson). A Calcium-3 assay kit (Molecular Device) was used as the […] and dissolved in 10 ml per bottle of HBSS-HEPES buffer (pH 7.4, 1×HBSS, 20 mM HEPES, Invitrogen). A 35.68 mg portion of probenecid (Sigma) was dissolved in 250 μl of 1 M NaOH and then adjusted by adding 250 μl of HBSS-HEPES buffer. The fluorescence pigment solution was prepared by mixing 16 ml of HBSS-HEPES buffer, 640 μl of the fluorescence pigment and 32 μl of probenecid, per plate. The medium in the plate was discarded, and the fluorescence pigment solution was dispensed in 40 μl per well portions and incubated at room temperature for 2 hours. Each compound to be tested was dissolved in DMSO, diluted with HBSS-HEPES buffer and then dispensed in 10 μl portions into the plate to start the reaction and measure change in the intracellular calcium concentration by FLIPR. EC50 values of the compounds to be tested were calculated from the dose-response curve of fluorescence intensity changes one minute after the measurement.

normal mice = assay: Normal mice single administration oral glucose tolerance test; format: in vivo; details: male ICR mice; 10 mg/kg oral 30 minutes before glucose (2 g/kg) loading; at 30 minutes of glucose loading, based on control group
Method: Test Method 3: Normal Mice Single Administration Oral Glucose Tolerance Test
This test examined on the blood glucose suppressive action of compounds to be tested after glucose loading using normal mice. Male ICR mice (6 weeks of age) were reared for 1 week in advance, subjected to overnight fasting and then used as animals to be tested. Each compound to be tested was prepared into a 0.5% methyl cellulose suspension and orally administered at a dose of 10 mg/kg 30 minutes before the glucose (2 g/kg) loading. In the control group, 0.5% methyl cellulose was administered. Blood glucose decreasing ratio (%) at the time of 30 minutes of glucose loading was calculated based on the control group.

T1 sequence (O14842 whole entry R211H): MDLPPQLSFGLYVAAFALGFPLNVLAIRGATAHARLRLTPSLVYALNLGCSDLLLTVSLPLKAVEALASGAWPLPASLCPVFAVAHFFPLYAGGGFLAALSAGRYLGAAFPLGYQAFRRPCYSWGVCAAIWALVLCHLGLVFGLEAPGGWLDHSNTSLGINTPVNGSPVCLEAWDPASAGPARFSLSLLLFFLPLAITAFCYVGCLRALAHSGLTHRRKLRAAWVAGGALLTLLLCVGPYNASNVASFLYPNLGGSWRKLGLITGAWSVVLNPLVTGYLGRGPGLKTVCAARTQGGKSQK

| SMILES | Insulin secretion promoting action (MIN6 cell) [%] | EC50 (human GPR40) [nM] | Blood glucose decreasing ratio (normal mice) [%] |
| --- | --- | --- | --- |
| CCCN1CCCc2cccc(CNc3ccc(CCC(=O)[O-])c(F)c3)c21.[Na+] [Example 57] | 167 | 97 | – |
| O=C(O)CCc1ccc(OCc2ccc3c(c2)N(CCC(F)(F)F)CCC3)cc1F [Example 73] | – | 73 | – |
| CC(=O)N1CCCc2ccc(COc3ccc(CCC(=O)O)c(F)c3)cc21 [Example 74] | – | 75 | – |
| O=C(O)CCc1ccc(NCc2ccc3c(c2)N(c2ccccc2)CCC3)cc1F [Example 86] | – | 19 | – |
| CCCN1CCCc2c(CNc3ccc(CCC(=O)O)c(F)c3)cccc21 [Example 87] | – | 82 | – |
| O=C(O)CCc1ccc(NCc2cccc3c2CCCN3CCc2ccccc2)cc1F [Example 89] | – | 620 | 21 |
| O=C(O)CCc1ccc(NCc2cccc3c2CCCN3CCOc2ccccc2)cc1F [Example 104] | 162 | 420 | 20 |
| COc1ccccc1OCCN1CCCc2c(CNc3ccc(CCC(=O)O)c(F)c3)cccc21 [Example 176] | – | 91 | – |
| COc1ccccc1CCN1CCCc2ccc(CNc3ccc(CCC(=O)O)c(F)c3)c(C)c21 [Example 188] | – | 36 | 24 |
| Cc1c(CNc2ccc(CCC(=O)O)c(F)c2)ccc2c1N(c1ccc(C(F)(F)F)cc1)CCC2 [Example 211] | – | 930 | – |
| Cc1cccc(N2CCCc3ccc(CNc4ccc(CCC(=O)O)c(F)c4)c(C)c32)c1 [Example 215] | – | 320 | – |
| Cc1ccc(CNc2ccc(CCC(=O)O)c(F)c2)c2c1N(CCOc1ccccc1)CCC2 [Example 424] | – | 130 | – |
| O=C(O)CCc1ccc(NCc2cccc3c2CCCN3CCOc2ccccc2)nc1 [Example 437] | – | 730 | – |
| Cc1c(CNc2ccc(CCC(=O)[O-])c(F)c2)ccc2c1N(c1ccccn1)CCC2.[Na+] [Example 453] | – | 25 | 24 |
| O=C(O)[C@@H]1C[C@H]1c1ccc(NCc2cccc3c2CCCN3CCOc2ccccc2)cc1 [Example 455] | – | 360 | – |
